Measurements reported in patent US20250177566A1, “USE OF CHEMICAL EPIGENETIC MODIFIERS TO MODULATE GENE EXPRESSION” (The University of North Carolina at Chapel Hill, priority 2022, published 2025).

How the values were obtained:
[1] = system: AAV transgene expression (firefly luciferase); assay: AAV regulation with first generation CEM, dual luciferase assay, HCT116 Renilla; assay type: cell-based, human; details: FIG. 12, 50, 200, 500, 1000 nM
Source text: (§1) It was investigated whether rAAV transgene expression can be epigenetically controlled. Rapid screening of CEM technology can be performed with dual liucierase assays. (FIG. 10). Briefly, a cell line can be stably transduced with Ef1a-Renilla, enabling normalization to cell number. The cells are then either infected with AAV or tranfected with plasmid and dosed with a chemical epigenetic modifier. Luminescence can then be measured with the Dual Lucieferase Reporter, commercially available from Promega. This approach is described in more detail in the methods section of the example. Gene activation can be described as normalized luciferase or fold change. A measure of total gene expression can be calculated by
Preliminary regulation of AAV with first generation CEMs is depicted in FIG. 11A. The prototype system is autogenous, saving casssette space. (FIG. 11B). […] Preliminary regulation of AAV with first generation CEMs in HEK293T Renilla cells using the cassette in FIG. 11B results are shown in FIG. 13, with multiplicity of infection (MOI)=number of viral genomes/cell.

[2] = system: rAAV2 transgene expression (firefly luciferase); assay: rAAV2 SLF* CEM system dual luciferase assay, HEK293T Renilla, multiplicity of infection; assay type: cell-based, human; details: FIGS. 14B and 14C; 0, 10 or 100 nM CEM207; increasing vg/cell
Source text: as §1
Next, it was determined whether SLF*CEMs can regulate AAV. The cassette shown in FIG. 14A was inserted into rAAV2 and infected into HEK293T Renilla. […] Next, it was explored whether the cassette was truly modular by varying the promoter while retaining SLF* CEM successful activation of rAAV2. […]
Day 4 (72 h): Data was obtained using the Promega Dula Luciferase Reporter (DLR) assay: first, the cells were washed with 100 μL of PBS/well dropwise followed by 20 μL of 1× passive lysis buffer (PLB) added to each well. The cells were incubated for 15 minutes in PLB and the assay ran on pheraSTAR microplate reader with 100 μL of each DLR reagent, gain=3600.

BRD4 = target: T1, BRD4 (Homo sapiens, UniProt O60885+P62942); assay: BRD4 ChIP-qPCR near the CXCR4 transcription start site, HCT116; assay type: cell-based; details: FIG. 8, 25 nM, 24 hrs
T1 construct: achieved via the accumulation of endogenous epigenetic machinery at the designed gRNA targeted gene locus; endogenous in cells; host or cells: HCT116 cells stably expressing dCas9 and MS2-FKBP*x2, transfected with CXCR4 or NT gRNA
T1 sequence (P62942 2-108 limits assumed, other chains not shown): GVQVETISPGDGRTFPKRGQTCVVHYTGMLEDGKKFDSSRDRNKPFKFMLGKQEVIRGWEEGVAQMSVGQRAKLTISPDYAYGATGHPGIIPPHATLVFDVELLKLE
Protocol: (§2) FIGS. 8A-8B show alamarBlue cell viability assays. HEK293T or HCT116 cells were plated in 96-well plates 24 hrs before chemical treatment of 0.001, 0.01, 0.1, 1, 10, 50, and 100 μM CEM207 was added. Another group of cells were treated with all concentrations of CEM207 mentioned above along with 200 nM CEM87 in all samples. After 4 days of chemical exposure, cell growth was measured by fluorescence. […] HCT116 cells were stably infected with dCas9 and MS2-FKBP*x2 constructs and transfected with CXCR4 gRNA. After 24 hrs of 25 nM CEM207 treatment, ChIP-qPCR was performed at different base pair distances from the transcription start site of CXCR4 gene. […] Error bars represent the standard deviation.
Given that SLF*-CEMa facilitates gene activation via recruitment of BET proteins including BRD4, BRD4 enrichment at a specific targeted gene locus was investigated to further validate the mechanism of CEM207. Based on the alamarBlue cell viability assay performed with HEK293T and HCT116 cells, CEM207 can have different toxicity effects on different cell lines after 4 days of exposure. […] The signal change was measured between samples when only CEM207 or gRNA are present and those where both are present. […] To determine outlier significance, a “z-score” distribution was calculated by taking the scaled means of the x- and y-axis values and calculated P values for each point within this distribution. […]

HCT116 cells = assay: alamarBlue cell viability assay, HCT116; assay type: cell-based, human
Protocol: as §2
AlamarBlue cell viability assay. HEK293T or HCT116 cells were placed in black 96-well plates with clear bottom. 24 hrs later, media was exchanged to include 0.001, 0.01, 0.1, 1, 10, 50, 100 μM concentrations of CEM207, or all CEM207 concentrations above along with 200 nM CEM87. After 4 days of chemical exposure, alamarBlue Cell Viability Reagent (Invitrogen, DAL1025) was added to each well. Cells were incubated at 37° C. for 4 hrs and fluorescence was read using the TECAN Infinite F200 Fluorescence Microplate Reader. IC50 values were calculated using GraphPad Prism 9.

Row | Structure (SMILES) | luminescence, fold change compared to no treatment [1] | activation of rAAV2 luciferase expression with viral titer escalation [2] | fold change, BRD4 ChIP-qPCR (CXCR4 gRNA vs NT gRNA) (BRD4; +40 bp from CXCR4 TSS) | fold change, BRD4 ChIP-qPCR (CXCR4 gRNA vs NT gRNA) (BRD4; +300 bp from CXCR4 TSS) | IC50 (HCT116 cells; CEM207 alone, 4 days of exposure) | IC50 (HCT116 cells; CEM207 in the background of 200 nM CEM87, 4 days of exposure)
1 | COc1ccc2c(c1)C(c1ccc(Cl)cc1)=N[C@@H](CC(=O)NCc1cn(CCOCCOCCOCCNC(=O)CCSCCC[C@@H]3/C=C(\C)C[C@H](C)C[C@H](OC)[C@H]4O[C@@](O)(C(=O)C(=O)N5CCCC[C@H]5C(=O)O[C@H](/C(C)=C/[C@@H]5CC[C@@H](O)[C@H](OC)C5)[C@H](C)[C@@H](O)CC3=O)[C@H](C)C[C@@H]4OC)nn1)c1nnc(C)n1-2 [CEM87, reference compound] | dose dependent increase in luminscence |  |  |  |  | 
2 | CC[C@H](C(=O)N1CCCC[C@H]1C(=O)O[C@H](CCc1ccc(OC)c(OC)c1)c1cccc(OCC(=O)NCCOCCOCCNC(=O)C[C@@H]2N=C(c3ccc(Cl)cc3)c3c(sc(C)c3C)-n3c(C)nnc32)c1)c1cc(OC)c(OC)c(OC)c1 [CEM207, (R)-1-(3-((14-((S)-4-(4-Chlorophenyl)-2,3,9-trimethyl-6H-thieno[3,2-f][1,2,4]triazolo[4,3-a][1,4]diazepin-6-yl)-2,13-dioxo-6,9-dioxa-3,12-diazatetradecyl)oxy)phenyl)-3-(3,4-dimethoxyphenyl) propyl(S)-1-((S)-2-(3,4,5-trimethoxyphenyl)butanoyl) piperidine-2-carboxylate] |  | compatible with viral titer escalation | 2.7 fold | 1.2 fold | 870 nM | 359 nM
